Assays:
ectopic E-MSCs [1] = assay: Endothelial differentiation (CD31) of ectopic E-MSCs in co-culture with HUVECs; format: cell-based, human; conditions: for endothelial differentiation (CD31 expression) of E-MSCs: 1 μM, 24 h treatment, 48 h co-culture with HUVECs
Procedure: FIG. 5: Quinagolide effect on EMSCs endothelial differentiation. A. FACS gating-strategy for the analysis of CD31^+ EMSCs after direct 48 h co-culture with HUVECs. EMSCs are gated as GFP negative population, and CD31 expression is evaluated on the described gated EMSCs after 48 h co-culture with HUVECs as percentage of CD31 APC positive events. B, C and D: Representative flow cytometry micrographs and quantification, expressed as percentage of variation respect to control co-culture, of the effect of 24 h treatment of EMSCs with 25 μM cabergoline, 1 μM sorafenib, 1 μM cabozantinib (B), 100 nM quinagolide (C) and the combination of 5 μM spiperone and 100 nM quinagolide (D) on EMSCs CD31 expression after 48 h of co-culture with HUVECs. Data are represented as mean±SD of at least three independent experiments, performed on different ectopic EMSC lines, and normalized to untreated co-culture. One-way ANova was performed: *=p<0.05 and ***=p<0.001 vs control.
(BSA)-Phosphate Buffered Saline (PBS) (Sigma). For each staining, 100,000 cells were incubated for 20 minutes at 4° C. with FITC, APC or PE-conjugated antibodies against: CD29, CD44, CD73, CD90 (BD Bioscences, Franklin Lakes, NJ, USA); CD31, CD34, CD105, CD140b, CD146, TEK receptor tyrosine kinase (Tie2), Sushi domain-containing protein 2 (SUSD2) (Miltenyi Biotech, Bergisch Gladbach, Germany); CD45 (AbD Serotec, Raleigh, NC, USA), or epithelial cell adhesion molecule (EPCAM) (BioLegend, San Diego, CA, USA). Labelled cells were washed by centrifugation and final pellet was resuspended in 200 μl of 0.1% BSA-PBS before cytofluorimetric analysis. Isotype (Miltenyi Biotec) was used as negative control.
Quinagolide powder (provided by Ferring Pharmaceuticals) was stored at 4° C. and resuspended in dimethylsulphoxide (DMSO) to a stock solution of 1 mM immediately before use. Spiperone powder (Sigma-Aldrich) was resuspended in water to a stock concentration of 1 mM and stored at −20° C. Cabergoline powder (Sigma-Aldrich) was dissolved in DMSO to a stock concentration of 25 mM and stored at −20° C. Sorafenib and cabozantinib (Sigma-Aldrich) were resuspended in DMSO to a final concentration of 10 mM and according to the manufacturer's instructions, and stored at −20° C. and −80° C., respectively. Quinagolide, spiperone and cabergoline were diluted 1:100 (final concentration 100 nM), 1:1000 (final concentration 5 μM) and 1:1000 (final concentration 25 μM) respectively. Quinagolide, cabergoline, sorafenib and cabozantinib and were administered for 24 hours during co-culture experiments, while spiperone was added to culture medium 1 h before quinagolide treatment. For invasion assays, E-MSCs were treated with spiperone 1 h before the cell detachment and quinagolide was added only when cells were plated on Matrigel. […]

ectopic E-MSCs [2] = conditions: 25 μM, previously described (Canosa et al., 2017), positive control; cited from earlier work
ectopic E-MSCs [3] = assay: Matrigel transwell invasion assay, ectopic E-MSCs; format: cell-based, human; conditions: 5 μM spiperone pre-treatment 1 h, then 100 nM quinagolide, ectopic EMSCs
Procedure: FIG. 4: Quinagolide effect on EMSCs invasion. A and B: Representative micrographs (A) and quantification (B) of quinagolide effect (100 nM) on eutopic and ectopic (both ovarian and peritoneal) EMSCs invasion (original magnification: ×100). C: Concentration response effect of quinagolide treated ectopic EMSCs invasion. D and E: Quantification (D) and representative micrographs (E) (original magnification: ×100) of invasion assays performed on ectopic EMSCs (both ovarian and peritoneal), treated with 100 nM quinagolide (Q100 nM), 5 μM spiperone(S) or a combination of quinagolide and spiperone (S+Q100 nM). All invasion data are represented as mean±SD of at least three independent experiments, performed on different EMSC lines, and normalized to untreated cells (CTL). One-way ANova was performed: *=p<0.05 and **=p<0.001 vs CTL. Quinagolide powder (provided by Ferring Pharmaceuticals) was stored at 4° C. and resuspended in dimethylsulphoxide (DMSO) to a stock solution of 1 mM immediately before use. Spiperone powder (Sigma-Aldrich) was resuspended in water to a stock concentration of 1 mM and stored at −20° C. Cabergoline powder (Sigma-Aldrich) was dissolved in DMSO to a stock concentration of 25 mM and stored at −20° C. […] Quinagolide, cabergoline, sorafenib and cabozantinib and were administered for 24 hours during co-culture experiments, while spiperone was added to culture medium 1 h before quinagolide treatment. […] E-MSCs were seeded in triplicate in Matrigel-precoated (100 μg Matrigel/transwell) 8-um pore transwells at a concentration of 50,000 cells per well in 200 μl of RPMI 2% FCS with/without quinagolide at the indicated concentration. To test the D2 antagonist effect, E-MSCs were pre-treated with spiperone (5 μM) for 1 h at 37° C. before cell detachment. After 48 hours, invaded E-MSCs on the bottom side of the transwell were fixed with methanol and stained with crystal violet. At least five pictures per transwell were acquired (original magnification: 100×), and the percentage of transwell area covered by invaded EMSCs was quantitatively measured by ImageJ software.

Structure (SMILES): CNC(=O)c1cc(Oc2ccc(NC(=O)Nc3ccc(Cl)c(C(F)(F)F)c3)cc2)ccn1 [Sorafenib]
- endothelial differentiation (CD31 expression) of E-MSCs (ectopic E-MSCs [1]): no effect

Structure (SMILES): C=CCN1C[C@H](C(=O)N(CCCN(C)C)C(=O)NCC)C[C@@H]2c3cccc4[nH]cc(c34)C[C@H]21 [cabergoline]
- E-MSC's angiogenic potential (ectopic E-MSCs [2]): decrease

Structure (SMILES): COc1cc2nccc(Oc3ccc(NC(=O)C4(C(=O)Nc5ccc(F)cc5)CC4)cc3)c2cc1OC [cabozantinib]
- endothelial differentiation (CD31 expression) of E-MSCs (ectopic E-MSCs [1]): no effect

Structure (SMILES): O=C(CCCN1CCC2(CC1)C(=O)NCN2c1ccccc1)c1ccc(F)cc1 [spiperone]
- reversal of quinagolide anti-invasive effect (ectopic E-MSCs [3]): completely reverted
- block of quinagolide effect on CD31 expressing E-MSCs (ectopic E-MSCs [1]; 5 μM spiperone one hour before 100 nM quinagolide, co-culture): blocked

— patent US20240361338A1, “DIAGNOSIS AND TREATMENT OF ECTOPIC ENDOMETRIOSIS” (FERRING B.V., priority 2021, published 2024)
